Molecular target: Endothelial lipase (EL) (Homo sapiens (Human), UniProt Q9Y5X9)
Experiment: Endothelial lipase (EL) enzymatic assay with fluorescent substrate A10070 in DMPG vesicles
Format: biochemical
How it was run: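 Compounds were preincubated with enzyme for 30 min at 37° C before FRET-substrate vesicles (A10070 in DMPG, 0.11 mole fraction) were added. Reaction rates were obtained from the 300–900 sec slope of fluorescence at 490/530 nm.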

Chain of Endothelial lipase (EL) (Q9Y5X9 21-500): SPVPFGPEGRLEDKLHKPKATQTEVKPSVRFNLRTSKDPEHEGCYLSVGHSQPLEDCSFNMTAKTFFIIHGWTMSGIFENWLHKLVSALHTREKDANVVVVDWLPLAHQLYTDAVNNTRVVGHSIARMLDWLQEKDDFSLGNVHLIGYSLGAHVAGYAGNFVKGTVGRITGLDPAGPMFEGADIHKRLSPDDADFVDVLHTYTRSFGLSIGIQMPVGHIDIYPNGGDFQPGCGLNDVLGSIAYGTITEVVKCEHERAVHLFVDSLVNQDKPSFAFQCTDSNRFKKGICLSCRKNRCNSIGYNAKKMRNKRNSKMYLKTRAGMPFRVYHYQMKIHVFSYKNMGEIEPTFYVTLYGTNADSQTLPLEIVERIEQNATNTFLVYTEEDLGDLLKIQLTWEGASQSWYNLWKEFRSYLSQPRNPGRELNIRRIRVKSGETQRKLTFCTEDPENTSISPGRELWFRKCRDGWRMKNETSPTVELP

## COCCS(=O)(=O)C(C(=O)NCC(=O)NC1CC1)c1nc2cc(C(F)(F)F)c(-c3cnc(C)nc3)cc2s1 (stereo not shown) [Example 178, N-[(cyclopropyl-carbamoyl)methyl]-2-(2-methoxyethane-sulfonyl)-2-[6-(2-methylpyrimidin-5-yl)-5-(trifluoromethyl)-1,3-benzothiazol-2-yl]acetamide]
  IC50: 56 nM

## CC(C)S(=O)(=O)C(C(=O)NCC(=O)NC1CC1)c1nc2cc(C(F)(F)F)c(Br)cc2s1 (stereo not shown) [Example 179, 2-[6-bromo-5-(trifluoromethyl)-1,3-benzothiazol-2-yl]-N-[(cyclopropyl-carbamoyl)methyl]-2-(propane-2-sulfonyl) acetamide]
  IC50: 82 nM

## CC(C)S(=O)(=O)C(C(=O)NCC(=O)NC1CC1)c1nc2cc(C(F)(F)F)c(-c3ccnn3C)cc2s1 (stereo not shown) [Example 180, N-[(cyclopropyl-carbamoyl)methyl]-2-[6-(1-methyl-1H-pyrazol-5-yl)-5-(trifluoromethyl)-1,3-benzothiazol-2-yl]-2-(propane-2-sulfonyl) acetamide]
  IC50: 88 nM

## COCCS(=O)(=O)C(C(=O)NCC(=O)NC1CC1)c1nc2cc(F)c(-c3cccc(F)n3)cc2s1 (stereo not shown) [Example 181, N-[(cyclopropyl-carbamoyl)methyl]-2-[5-fluoro-6-(6-fluoropyridin-2-yl)-1,3-benzothiazol-2-yl]-2-(2-methoxyethane-sulfonyl) acetamide]
  IC50: 143 nM

## COCCS(=O)(=O)C(C(=O)NCC(=O)NC1CC1)c1nc2cc(-c3ccc(F)nc3)c(C)cc2s1 (stereo not shown) [Example 182, N-[(cyclopropyl-carbamoyl)methyl]-2-[5-(6-fluoropyridin-3-yl)-6-methyl-1,3-benzothiazol-2-yl]-2-(2-methoxyethane-sulfonyl) acetamide]
  IC50: 21 nM

## COCCS(=O)(=O)C(C(=O)NCC(=O)NC1CC1)c1nc2cc(-c3cncnc3)c(C)cc2s1 (stereo not shown) [Example 183, N-[(cyclopropyl-carbamoyl)methyl]-2-(2-methoxyethane-sulfonyl)-2-[6-methyl-5-(pyrimidin-5-yl)-1,3-benzothiazol-2-yl]acetamide]
  IC50: 39 nM

## COCCS(=O)(=O)C(C(=O)NCC(=O)NC1CC1)c1nc2cc(-c3cnc(C)nc3)c(C)cc2s1 (stereo not shown) [Example 184, N-[(cyclopropyl-carbamoyl)methyl]-2-(2-methoxyethane-sulfonyl)-2-[6-methyl-5-(2-methylpyrimidin-5-yl)-1,3-benzothiazol-2-yl]acetamide]
  IC50: 29 nM

## COCCS(=O)(=O)C(C(=O)NCC(=O)NC1CC1)c1nc2cc(C)c(-c3ccc(F)nc3)cc2s1 (stereo not shown) [Example 185, N-[(cyclopropyl-carbamoyl)methyl]-2-[6-(6-fluoropyridin-3-yl)-5-methyl-1,3-benzothiazol-2-yl]-2-(2-methoxyethane-sulfonyl) acetamide]
  IC50: 4 nM

## COCCS(=O)(=O)C(C(=O)NCC(=O)NC1CC1)c1nc2cc(C)c(-c3cnnc(C)c3)cc2s1 (stereo not shown) [Example 186, N-[(cyclopropyl-carbamoyl)methyl]-2-(2-methoxyethane-sulfonyl)-2-[5-methyl-6-(6-methylpyridazin-4-yl)-1,3-benzothiazol-2-yl]acetamide]
  IC50: 40 nM

## COCCS(=O)(=O)C(C(=O)NCC(=O)NC1CC1)c1nc2cc(C(F)(F)F)c(-c3cnnc(C)c3)cc2s1 (stereo not shown) [Example 187, N-[(cyclopropyl-carbamoyl)methyl]-2-(2-methoxyethane-sulfonyl)-2-[6-(6-methylpyridazin-4-yl)-5-(trifluoromethyl)-1,3-benzothiazol-2-yl]acetamide]
  IC50: 229 nM

## COCCS(=O)(=O)C(C(=O)NCC(=O)NC1CC1)c1nc2cc(C(F)(F)F)c(-c3ccc(=O)n(C(C)C)c3)cc2s1 (stereo not shown) [Example 188, N-[(cyclopropyl-carbamoyl)methyl]-2-(2-methoxyethane-sulfonyl)-2-{6-[6-oxo-1-(propan-2-yl)-1,6-dihydropyridin-3-yl]-5-(trifluoromethyl)-1,3-benzothiazol-2-yl}acetamide]
  IC50: 37 nM

## COCCS(=O)(=O)C(C(=O)NCC(=O)NC1CC1)c1nc2cc(C)c(-c3ccc4c(=O)n(C)ccc4c3)cc2s1 (stereo not shown) [Example 189, N-[(cyclopropyl-carbamoyl)methyl]-2-(2-methoxyethane-sulfonyl)-2-[5-methyl-6-(2-methyl-1-oxo-1,2-dihydro-isoquinolin-6-yl)-1,3-benzothiazol-2-yl]acetamide]
  IC50: 4 nM

## CS(=O)(=O)C(C(=O)NCC(=O)NC1CC1)c1nc2cc(F)c(-c3ccc(F)nc3)cc2s1 (stereo not shown) [Example 190, N-[(cyclopropyl-carbamoyl)methyl]-2-[5-fluoro-6-(6-fluoropyridin-3-yl)-1,3-benzothiazol-2-yl]-2-methanesulfonyl-acetamide]
  IC50: 16 nM

## Cc1ccc(-c2cc3sc(C(C(=O)NCC(=O)NC4CC4)S(C)(=O)=O)nc3cc2F)cn1 (stereo not shown) [Example 191, N-[(cyclopropyl-carbamoyl)methyl]-2-[5-fluoro-6-(6-methylpyridin-3-yl)-1,3-benzothiazol-2-yl]-2-methanesulfonyl-acetamide]
  IC50: 9 nM

## CS(=O)(=O)C(C(=O)NCC(=O)NC1CC1)c1nc2cc(F)c(-c3cnc(C4CC4)nc3)cc2s1 (stereo not shown) [Example 192, N-[(cyclopropyl-carbamoyl)methyl]-2-[6-(2-cyclopropyl-pyrimidin-5-yl)-5-fluoro-1,3-benzothiazol-2-yl]-2-methanesulfonyl-acetamide]
  IC50: 25 nM

## Cn1ccc2cc(-c3cc4sc(C(C(=O)NCC(=O)NC5CC5)S(C)(=O)=O)nc4cc3F)ccc2c1=O (stereo not shown) [Example 193, N-[(cyclopropyl-carbamoyl)methyl]-2-[5-fluoro-6-(2-methyl-1-oxo-1,2-dihydro-isoquinolin-6-yl)-1,3-benzothiazol-2-yl]-2-methanesulfonyl-acetamide]
  IC50: 5 nM

## Cc1ncc(-c2cc3sc(C(C(=O)NCC(=O)NC4CC4)S(C)(=O)=O)nc3cc2F)cn1 (stereo not shown) [Example 194, N-[(cyclopropyl-carbamoyl)methyl]-2-[5-fluoro-6-(2-methylpyrimidin-5-yl)-1,3-benzothiazol-2-yl]-2-methanesulfonyl-acetamide]
  IC50: 34 nM

## CC(C)n1cc(-c2cc3sc(C(C(=O)NCC(=O)NC4CC4)S(C)(=O)=O)nc3cc2F)ccc1=O (stereo not shown) [Example 195, N-[(cyclopropyl-carbamoyl)methyl]-2-{5-fluoro-6-[6-oxo-1-(propan-2-yl)-1,6-dihydropyridin-3-yl]-1,3-benzothiazol-2-yl}-2-methanesulfonyl-acetamide]
  IC50: 23 nM

## Cn1ncc2ccc(-c3cc4sc(C(C(=O)NCC(=O)NC5CC5)S(C)(=O)=O)nc4cc3F)cc21 (stereo not shown) [Example 196, N-[(cyclopropyl-carbamoyl)methyl]-2-[5-fluoro-6-(1-methyl-1H-indazol-6-yl)-1,3-benzothiazol-2-yl]-2-methanesulfonyl-acetamide]
  IC50: 1 nM

## CS(=O)(=O)C(C(=O)NCC(=O)NC1CC1)c1nc2cc(F)c(-c3ccc4[nH]c(=O)ccc4c3)cc2s1 (stereo not shown) [Example 197, N-[(cyclopropyl-carbamoyl)methyl]-2-[5-fluoro-6-(2-oxo-1,2-dihydroquinolin-6-yl)-1,3-benzothiazol-2-yl]-2-methanesulfonyl-acetamide]
  IC50: 3 nM

## COCCS(=O)(=O)C(C(=O)NCC(=O)NC1CC1)c1nc2cc(F)c(-c3ccc4cnn(C)c4c3)cc2s1 (stereo not shown) [Example 198, N-[(cyclopropyl-carbamoyl)methyl]-2-[5-fluoro-6-(1-methyl-1H-indazol-6-yl)-1,3-benzothiazol-2-yl]-2-(2-methoxyethane-sulfonyl) acetamide]
  IC50: 5 nM

## CS(=O)(=O)C(C(=O)NCC(=O)NC1CC1)c1nc2cc(F)c(-c3ccc(C#N)nc3)cc2s1 (stereo not shown) [Example 199, 2-[6-(6-cyanopyridin-3-yl)-5-fluoro-1,3-benzothiazol-2-yl]-N-[(cyclopropyl-carbamoyl)methyl]-2-methanesulfonyl-acetamide]
  IC50: 24 nM

## CS(=O)(=O)C(C(=O)NCC(=O)NC1CC1)c1nc2cc(F)c(-c3ccc(-n4ccccc4=O)cc3)cc2s1 (stereo not shown) [Example 200, N-[(cyclopropyl-carbamoyl)methyl]-2-{5-fluoro-6-[4-(2-oxo-1,2-dihydropyridin-1-yl)phenyl]-1,3-benzothiazol-2-yl}-2-methanesulfonyl-acetamide]
  IC50: 8 nM

## CS(=O)(=O)C(C(=O)NCC(=O)NC1CC1)c1nc2cc(F)c(-c3ccc(N4CCCCC4=O)cc3)cc2s1 (stereo not shown) [Example 201, N-[(cyclopropyl-carbamoyl)methyl]-2-{5-fluoro-6-[4-(2-oxopiperidin-1-yl)phenyl]-1,3-benzothiazol-2-yl}-2-methanesulfonyl-acetamide]
  IC50: 10 nM

## CS(=O)(=O)C(C(=O)NCC(=O)NC1CC1)c1nc2cc(F)c(-c3cnc(-c4ccccc4)nc3)cc2s1 (stereo not shown) [Example 202, N-[(cyclopropyl-carbamoyl)methyl]-2-[5-fluoro-6-(2-phenylpyrimidin-5-yl)-1,3-benzothiazol-2-yl]-2-methanesulfonyl-acetamide]
  IC50: 5 nM

## CS(=O)(=O)C(C(=O)NCC(=O)NC1CC1)c1nc2cc(F)c(-c3ccc(-c4ccccc4)nc3)cc2s1 (stereo not shown) [Example 203, N-[(cyclopropyl-carbamoyl)methyl]-2-[5-fluoro-6-(6-phenylpyridin-3-yl)-1,3-benzothiazol-2-yl]-2-methanesulfonyl-acetamide]
  IC50: 3 nM

## Cc1cc2nc(C(C(=O)NCC(=O)NC3CC3)S(=O)(=O)C(C)C)sc2cc1-c1ccc2[nH]c(=O)ccc2c1 (stereo not shown) [Example 204, N-[(cyclopropyl-carbamoyl)methyl]-2-[5-methyl-6-(2-oxo-1,2-dihydroquinolin-6-yl)-1,3-benzothiazol-2-yl]-2-(propane-2-sulfonyl) acetamide]
  IC50: 2 nM

## O=C(CNC(=O)C(c1nc2ccc(-c3ccc(OCC4CC4)nc3)cc2s1)S(=O)(=O)Cc1ccc(F)cc1)NC1CC1 (stereo not shown) [Example 205, N-[(cyclopropyl-carbamoyl)methyl]-2-{6-[6-(cyclopropyl-methoxy)pyridin-3-yl]-1,3-benzothiazol-2-yl}-2[(4-fluorophenyl)methanesulfonyl] acetamide]
  IC50: 8 nM

— US10173991B2, “Sulfone amide linked benzothiazole inhibitors of endothelial lipase” (BRISTOL-MYERS SQUIBB COMPANY, priority 2014, dated 2019)
